Source: ChEMBL document CHEMBL5321200, “Discovery of the GSH responsive "Y-PROTACs" targeting ALK and CDK4/6 as a potential treatment for cancer” (Eur J Med Chem, 2023)
Calls of active or inactive are those of the source. The calls are words filed in the database; no cut-off is given here.

Experiments:
[1] = target: ALK tyrosine kinase receptor (Homo sapiens) (UniProt Q9UM73); experiment: Inhibition of ALK (unknown origin) at 0.05 uM by LANCE Ultra TR-FRET assay relative to control
[2] = system: NCI-H3122; experiment: Cell cycle arrest in human NCI-H3122 cells assessed as accumulation of cells at G0/G1 phase at 0.625 uM incubated for 24 hrs by propidium iodide staining based flow cytometric analysis (reference value: 48.68%); assay type: functional
[3] = system: NCI-H2228; experiment: Antiproliferative activity against human NCI-H2228 cells assessed as inhibition of cell growth pretreated with GSH followed by compound addition and incubated for 3 to 5 days by MTT assay; assay type: functional, cell-based
[4] = system: NCI-H3122; experiment: Induction of apoptosis in human NCI-H3122 cells assessed as necrotic cells at 0.625 uM incubated for 48 hrs by Annexin V-FITC/propidium iodide staining based flow cytometric analysis (reference value: 0.57%); assay type: functional
[5] = system: NCI-H3122; experiment: Cell cycle arrest in human NCI-H3122 cells assessed as accumulation of cells at S phase at 1.25 uM incubated for 24 hrs by propidium iodide staining based flow cytometric analysis (reference value: 29.94%); assay type: functional
[6] = system: NCI-H3122; experiment: Induction of apoptosis in human NCI-H3122 cells assessed as total apoptotic cells at 2.5 uM incubated for 48 hrs by Annexin V-FITC/propidium iodide staining based flow cytometric analysis relative to control; assay type: functional
[7] = Toxicity in BALB/c nude mouse xenografted with human NCI-H3122 cells assessed as effect on liver function at 75 mg/kg, IG administered once daily for 18 days by H and E staining based assay; assay type: organism-based; conditions: in vivo, po, 432 h, time 18 day
[8] = system: NCI-H3122; experiment: Induction of apoptosis in human NCI-H3122 cells assessed as viable cells at 0.312 uM incubated for 48 hrs by Annexin V-FITC/propidium iodide staining based flow cytometric analysis (reference value: 95.66%); assay type: functional; conditions: read-out: Activity
[9] = Toxicity in BALB/c nude mouse xenografted with human NCI-H3122 cells assessed as effect on heart function at 75 mg/kg, IG administered once daily for 18 days and measured after 12 hrs of last dose by H and E staining based assay; assay type: organism-based; conditions: in vivo, po, 444 h
[10] = system: NCI-H3122; experiment: Induction of apoptosis in human NCI-H3122 cells assessed as necrotic cells at 2.5 uM incubated for 48 hrs by Annexin V-FITC/propidium iodide staining based flow cytometric analysis (reference value: 0.57%); assay type: functional
[11] = system: NCI-H1299; experiment: Antiproliferative activity against human NCI-H1299 cells assessed as inhibition of cell growth incubated for 3 to 5 days by MTT assay; assay type: functional, cell-based
[12] = Toxicity in BALB/c nude mouse xenografted with human NCI-H3122 cells assessed as effect on visceral liver morphology at 75 mg/kg, IG administered once daily for 18 days and measured after 12 hrs of last dose by H and E staining based analysis; assay type: organism-based; conditions: in vivo, po, 444 h
[13] = Toxicity in BALB/c nude mouse xenografted with human NCI-H3122 cells assessed as effect on visceral lung morphology at 75 mg/kg, IG administered once daily for 18 days and measured after 12 hrs of last dose by H and E staining based analysis; assay type: organism-based; conditions: in vivo, po, 444 h
[14] = target: T1, Protein cereblon/Cyclin-dependent kinase 4 (Homo sapiens, UniProt P11802+Q96SW2); experiment: PROTAC activity at CRBN/CDK4 in human L02 cells assessed as reduction in CDK4 protein level at 1 to 20 uM incubated for 24 hrs in presence of GSH by Western blot analysis; assay type: cell-based; conditions: dose 1-20 µM
[15] = target: T1, Protein cereblon/Cyclin-dependent kinase 4; experiment: PROTAC activity at CRBN/CDK4 in human NCI-H3122 cells assessed as induction of CDK4 protein degradation at 10 uM incubated for 24 hrs by Western blot analysis relative to control; assay type: cell-based
[16] = target: T2, Protein cereblon/ALK tyrosine kinase receptor/Echinoderm microtubule-associated protein-like 4 (Homo sapiens) (UniProt Q9UM73+Q9HC35+Q96SW2); experiment: PROTAC activity at CRBN/EML4-ALK in human NCI-H3122 cells assessed as degradation of EML4-ALK fusion protein at 5 uM pretreated with pomalidomide for 4 hrs followed by compound addition and measured after 24 hrs by Western blot analysis; assay type: cell-based
[17] = target: Cyclin-dependent kinase 4 (Homo sapiens) (UniProt P11802); experiment: Inhibition of CDK4 (unknown origin) at 1 uM by LANCE Ultra TR-FRET assay relative to control
[18] = Cytotoxicity against human L02 cells assessed as inhibition of cell growth incubated for 3 to 5 days by MTT assay; assay type: toxicity, cell-based
[19] = system: NCI-H3122; experiment: Cell cycle arrest in human NCI-H3122 cells assessed as accumulation of cells at G0/G1 phase at 0.312 uM incubated for 24 hrs by propidium iodide staining based flow cytometric analysis (reference value: 48.68%); assay type: functional
[20] = Toxicity in BALB/c nude mouse xenografted with human NCI-H3122 cells assessed as reduction in body weight at 25 to 75 mg/kg, IG administered once daily for 18 days; assay type: organism-based; conditions: in vivo, po, 432 h, dose 25-75 mg/kg, time 18 day
[21] = system: NCI-H3122; experiment: Induction of apoptosis in human NCI-H3122 cells assessed as viable cells at 1.25 uM incubated for 48 hrs by Annexin V-FITC/propidium iodide staining based flow cytometric analysis (reference value: 95.66%); assay type: functional; conditions: read-out: Activity
[22] = system: NCI-H3122; experiment: Antitumor activity against human NCI-H3122 cells xenografted in BALB/c nude mouse assessed as tumor growth inhibition at 50 mg/kg, IG administered once daily for 18 days and measured after 12 hrs of last dose relative to control; assay type: functional; conditions: NCI-H3122, po, time 444 hrs, read-out: TGI
[23] = target: T2, Protein cereblon/ALK tyrosine kinase receptor/Echinoderm microtubule-associated protein-like 4 (Homo sapiens); experiment: PROTAC activity at CRBN/EML4-ALK in human NCI-H3122 cells assessed as degradation of EML4-ALK fusion protein at 5 uM pretreated with MG132 for 4 hrs followed compound addition and measured after 24 hrs by Western blot analysis; assay type: cell-based
[24] = system: NCI-H3122; experiment: Antiproliferative activity against human NCI-H3122 cells assessed as inhibition of cell growth incubated for 3 to 5 days by MTT assay; assay type: functional, cell-based
[25] = system: NCI-H3122; experiment: Induction of apoptosis in human NCI-H3122 cells assessed as necrotic cells at 0.312 uM incubated for 48 hrs by Annexin V-FITC/propidium iodide staining based flow cytometric analysis (reference value: 0.57%); assay type: functional
[26] = target: T2, Protein cereblon/ALK tyrosine kinase receptor/Echinoderm microtubule-associated protein-like 4 (Homo sapiens); experiment: PROTAC activity at CRBN/EML4-ALK in human NCI-H3122 cells assessed as reduction in EML4-ALK fusion protein level at 10 uM incubated for 24 hrs by Western blot analysis; assay type: cell-based
[27] = system: NCI-H3122; experiment: Cell cycle arrest in human NCI-H3122 cells assessed as accumulation of cells at G0/G1 phase at 2.5 uM incubated for 24 hrs by propidium iodide staining based flow cytometric analysis (reference value: 48.68%); assay type: functional
[28] = target: Protein cereblon/ALK tyrosine kinase receptor/Echinoderm microtubule-associated protein-like 4 (Homo sapiens, UniProt Q96SW2+Q9HC35+Q9UM73); experiment: PROTAC activity at CRBN/EML4-ALK in human NCI-H3122 cells assessed as reduction in EML4-ALK fusion protein level incubated for 24 hrs by Western blot analysis; assay type: cell-based
[29] = system: NCI-H1299; experiment: Antiproliferative activity against human NCI-H1299 cells assessed as inhibition of cell growth pretreated with GSH followed by compound addition and incubated for 3 to 5 days by MTT assay; assay type: functional, cell-based

T2 sequence (Q96SW2 whole entry partner, the tested form may be a part): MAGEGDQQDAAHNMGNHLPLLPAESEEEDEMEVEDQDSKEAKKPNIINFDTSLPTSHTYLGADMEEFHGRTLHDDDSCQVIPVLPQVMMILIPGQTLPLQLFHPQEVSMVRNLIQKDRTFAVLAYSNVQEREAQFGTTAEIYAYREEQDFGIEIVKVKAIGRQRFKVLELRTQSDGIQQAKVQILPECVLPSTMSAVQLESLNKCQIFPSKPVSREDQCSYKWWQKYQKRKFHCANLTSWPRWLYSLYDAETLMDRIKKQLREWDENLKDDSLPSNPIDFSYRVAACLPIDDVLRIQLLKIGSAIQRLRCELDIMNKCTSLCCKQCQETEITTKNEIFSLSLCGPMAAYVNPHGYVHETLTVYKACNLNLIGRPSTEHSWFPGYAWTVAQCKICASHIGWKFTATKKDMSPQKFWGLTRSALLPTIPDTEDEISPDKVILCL
T2 sequence (Q9HC35 whole entry partner, the tested form may be a part): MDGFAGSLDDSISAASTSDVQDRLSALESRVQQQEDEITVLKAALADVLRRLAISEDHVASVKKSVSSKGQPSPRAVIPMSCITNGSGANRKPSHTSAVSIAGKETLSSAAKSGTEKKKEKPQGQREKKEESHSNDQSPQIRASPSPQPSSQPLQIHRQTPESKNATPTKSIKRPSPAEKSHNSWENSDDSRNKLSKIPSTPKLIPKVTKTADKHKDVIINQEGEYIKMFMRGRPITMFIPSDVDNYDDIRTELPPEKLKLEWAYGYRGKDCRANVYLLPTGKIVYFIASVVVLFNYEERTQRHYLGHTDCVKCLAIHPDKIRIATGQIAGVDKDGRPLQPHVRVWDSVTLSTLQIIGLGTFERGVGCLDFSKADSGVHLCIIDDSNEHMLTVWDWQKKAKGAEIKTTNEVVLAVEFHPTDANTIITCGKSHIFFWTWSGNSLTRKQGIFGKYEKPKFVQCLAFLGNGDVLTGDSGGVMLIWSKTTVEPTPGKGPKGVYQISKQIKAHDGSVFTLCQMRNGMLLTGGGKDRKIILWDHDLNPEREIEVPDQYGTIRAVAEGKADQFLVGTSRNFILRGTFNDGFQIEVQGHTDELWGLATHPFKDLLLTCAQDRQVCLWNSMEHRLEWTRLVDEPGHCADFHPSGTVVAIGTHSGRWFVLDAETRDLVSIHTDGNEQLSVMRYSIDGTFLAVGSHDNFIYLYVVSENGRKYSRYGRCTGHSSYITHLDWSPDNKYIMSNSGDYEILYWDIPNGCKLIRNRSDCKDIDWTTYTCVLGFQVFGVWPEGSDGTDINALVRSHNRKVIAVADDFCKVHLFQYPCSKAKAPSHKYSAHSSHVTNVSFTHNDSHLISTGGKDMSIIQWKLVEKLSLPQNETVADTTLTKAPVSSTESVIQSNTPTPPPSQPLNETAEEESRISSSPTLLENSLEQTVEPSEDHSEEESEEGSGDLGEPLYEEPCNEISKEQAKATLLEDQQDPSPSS
T2 sequence (Q9UM73 19-1620 limits assumed): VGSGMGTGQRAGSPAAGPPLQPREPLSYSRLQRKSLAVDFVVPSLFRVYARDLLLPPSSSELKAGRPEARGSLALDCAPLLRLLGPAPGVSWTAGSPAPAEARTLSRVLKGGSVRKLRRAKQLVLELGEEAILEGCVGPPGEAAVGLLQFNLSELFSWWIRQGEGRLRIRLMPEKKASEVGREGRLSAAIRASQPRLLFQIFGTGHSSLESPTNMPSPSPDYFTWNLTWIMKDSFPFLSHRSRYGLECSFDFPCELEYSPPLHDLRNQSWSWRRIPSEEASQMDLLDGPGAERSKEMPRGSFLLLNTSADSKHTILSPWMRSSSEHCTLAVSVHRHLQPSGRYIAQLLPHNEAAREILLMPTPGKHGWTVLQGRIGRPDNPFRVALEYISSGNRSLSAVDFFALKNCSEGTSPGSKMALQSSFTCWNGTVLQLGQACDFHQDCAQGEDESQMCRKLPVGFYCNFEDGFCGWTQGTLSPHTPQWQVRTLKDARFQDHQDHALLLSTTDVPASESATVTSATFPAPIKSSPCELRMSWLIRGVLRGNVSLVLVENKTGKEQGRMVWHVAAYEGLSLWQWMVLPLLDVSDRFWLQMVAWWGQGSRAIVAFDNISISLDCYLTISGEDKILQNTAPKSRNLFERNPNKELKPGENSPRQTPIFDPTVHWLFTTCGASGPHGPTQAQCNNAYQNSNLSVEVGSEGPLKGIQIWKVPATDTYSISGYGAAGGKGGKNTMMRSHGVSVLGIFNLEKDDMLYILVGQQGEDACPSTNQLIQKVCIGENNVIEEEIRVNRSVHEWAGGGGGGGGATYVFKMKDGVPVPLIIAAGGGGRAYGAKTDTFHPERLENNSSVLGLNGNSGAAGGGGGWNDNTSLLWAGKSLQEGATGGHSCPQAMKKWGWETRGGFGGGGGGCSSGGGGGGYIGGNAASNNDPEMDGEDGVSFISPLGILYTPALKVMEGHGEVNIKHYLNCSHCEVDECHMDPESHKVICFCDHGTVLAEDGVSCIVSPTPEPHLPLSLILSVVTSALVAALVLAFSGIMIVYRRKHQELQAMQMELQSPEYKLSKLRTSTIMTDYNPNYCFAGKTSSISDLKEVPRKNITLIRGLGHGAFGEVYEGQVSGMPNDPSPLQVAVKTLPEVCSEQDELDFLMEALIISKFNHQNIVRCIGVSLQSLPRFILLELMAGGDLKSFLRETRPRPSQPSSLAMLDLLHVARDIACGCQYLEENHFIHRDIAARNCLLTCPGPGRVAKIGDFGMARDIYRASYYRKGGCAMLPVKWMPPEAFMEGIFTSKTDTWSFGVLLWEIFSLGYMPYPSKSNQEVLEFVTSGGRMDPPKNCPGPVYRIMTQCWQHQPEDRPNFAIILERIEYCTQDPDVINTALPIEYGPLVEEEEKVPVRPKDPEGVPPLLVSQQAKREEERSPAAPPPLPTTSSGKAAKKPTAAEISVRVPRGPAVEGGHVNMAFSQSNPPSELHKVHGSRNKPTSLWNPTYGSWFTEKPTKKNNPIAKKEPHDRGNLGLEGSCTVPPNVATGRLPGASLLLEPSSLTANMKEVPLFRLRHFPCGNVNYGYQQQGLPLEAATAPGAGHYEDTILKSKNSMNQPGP
T1 sequence (P11802 2-303 limits assumed): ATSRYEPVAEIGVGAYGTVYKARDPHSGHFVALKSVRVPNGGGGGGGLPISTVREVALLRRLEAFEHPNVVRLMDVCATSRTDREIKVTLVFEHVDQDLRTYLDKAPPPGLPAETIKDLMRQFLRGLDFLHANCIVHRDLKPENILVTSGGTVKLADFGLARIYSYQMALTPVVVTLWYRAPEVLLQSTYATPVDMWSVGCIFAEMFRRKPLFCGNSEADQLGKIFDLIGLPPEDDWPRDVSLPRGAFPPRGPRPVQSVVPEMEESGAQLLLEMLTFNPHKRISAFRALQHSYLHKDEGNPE
T1 sequence (Q96SW2 whole entry partner): as the sequence (Q96SW2 whole entry partner, the tested form may be a part) above
ALK tyrosine kinase receptor (Homo sapiens), sequence (Q9UM73 19-1620 limits assumed): as the sequence (Q9UM73 19-1620 limits assumed) above
Cyclin-dependent kinase 4 (Homo sapiens), sequence (P11802 whole entry): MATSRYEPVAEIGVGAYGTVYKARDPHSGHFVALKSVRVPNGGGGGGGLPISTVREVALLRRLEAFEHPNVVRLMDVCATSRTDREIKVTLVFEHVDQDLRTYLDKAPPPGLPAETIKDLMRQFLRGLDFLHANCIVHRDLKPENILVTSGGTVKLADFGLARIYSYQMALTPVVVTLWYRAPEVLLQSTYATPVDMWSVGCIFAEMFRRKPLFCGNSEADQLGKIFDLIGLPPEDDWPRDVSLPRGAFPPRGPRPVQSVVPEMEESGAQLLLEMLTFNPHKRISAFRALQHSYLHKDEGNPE

inhibition [1]: 68.3%
IC50 [3]: 1.76 µM
IC50 [11]: 21.2 µM
Activity [14]: inactive
Activity [15]: 70%
Activity [16]: inactive
inhibition [17]: 80.2%
Activity [23]: inactive
IC50 [24]: 0.14 µM
Activity [26]: Active
EC50 [28]: 2.83 µM
IC50 [29]: 4.73 µM
SMILES: CC(=O)c1c(C)c2cnc(Nc3ccc(N4CCN(CC(=O)NCCSSCCN(CC(=O)NCCNc5cccc6c5C(=O)N(C5CCC(=O)NC5=O)C6=O)C(=O)CCCCCCC(=O)N5CCC(c6cc(OC(C)C)c(Nc7ncc(Cl)c(Nc8ccccc8S(=O)(=O)C(C)C)n7)cc6C)CC5)CC4)cn3)nc2n(C2CCCC2)c1=O (centres undefined)
Activity [2]: 68.5%
Activity [4]: 2.11%
Activity [5]: 10.58%
Activity [6]: 17.2%
Activity [7]: Non-Toxic
viability at 0.312 µM [8]: 91.5%
Activity [9]: Non-Toxic
Activity [10]: 1.01%
Activity [12]: Non-Toxic
Activity [13]: Non-Toxic
IC50 [18]: 55.3 µM
Activity [19]: 63.17%
Activity [20]: Non-Toxic
viability at 1.25 µM [21]: 86.6%
inhibition in vivo at 50 mg/kg [22]: 54.8%
Activity [25]: 0.6%
Activity [27]: 81.72%
